Read-outs that look alike come from different tables or passages of the source.
Key:
Format in all cases: cell-based
[1] = test system: varicella zoster virus (VZV) YS viral strain; assay: VZV plaque reduction in tissue culture, YS strain; details: read-out: EC50 VZV YS
[2] = test system: human embryonic lung cells; assay: Cytotoxicity to human embryonic lung cells; details: minimum cytotoxic concentration to human embryonic lung cells
Excerpt: MCC AM is the minimum cytotoxic concentration to human embryonic lung cells.

[3] = test system: varicella zoster virus (VZV) viral strain YS; TK deficient; assay: VZV plaque reduction in tissue culture, strain YS, TK deficient; details: read-out: EC50 VZV TK-YS
[4] = test system: varicella zoster virus (VZV) viral strain 07; TK deficient; assay: microbe, parasite or virus in culture; details: read-out: EC50 VZV TK-07
[5] = Cytotoxicity to human embryonic lung cells; details: 50% cytotoxic concentration to human embryonic lung cells
[6] = test system: varicella zoster virus (VZV) OKA viral strain; assay: microbe, parasite or virus in culture; details: read-out: EC50 VZV OKA
[7] = test system: human embryonic lung cells; assay: Cytotoxicity to human embryonic lung cells; details: 50% cytotoxic concentration to human embryonic lung cells
[8] = Human alphaherpesvirus 3, 120 h, reduce viral plaque formation after 5 days by 50% compared to untreated control, YS viral strain
[9] = Human alphaherpesvirus 3, 120 h
[10] = reduce viral plaque formation after 5 days by 50% compared to untreated control, YS viral strain
[11] = reduce viral plaque formation after 5 days by 50% compared to untreated control, OKA viral strain
[12] = reduce viral plaque formation after 5 days by 50%, viral strain YS, TK deficient
[13] = reduce viral plaque formation after 5 days by 50%, viral strain 07, TK deficient

| SMILES | EC50 [1, 8] [µM] | MCC [2] | EC50 [3, 9] [µM] | EC50 [4, 9] [µM] | CC50 [5] [µM] | EC50 [1, 9] [µM] | EC50 [6, 9] [µM] | EC50 [1, 10] [µM] | EC50 [6, 11] [µM] | EC50 [3, 12] [µM] | EC50 [4, 13] [µM] | CC50 [7] [µM] |
| --- | --- | --- | --- | --- | --- | --- | --- | --- | --- | --- | --- | --- |
| COc1ccc(-c2cc3cn([C@H]4C[C@H](O)[C@@H](CO)O4)c(=O)nc3o2)cc1 [Example 14, 3-(2′-deoxy-β-D-ribofuranosyl)-6-(4-methoxyphenyl)-2,3-dihydrofuro-[2,3-d]pyrimidin-2-one] | 0.05 | 200 µM | > 50 | > 50 | > 200 |  |  |  |  |  |  |  |
| CCOc1ccc(-c2cc3cn([C@H]4C[C@H](O)[C@@H](CO)O4)c(=O)nc3o2)cc1 [Example 15, 3-(2′-deoxy-β-D-ribofuranosyl)-6-(4-ethoxyphenyl)-2,3-dihydrofuro-[2,3-d]pyrimidin-2-one] | 0.01 | 200 µM | > 50 | 50 | > 200 |  |  |  |  |  |  |  |
| O=c1[nH]c(=O)n([C@H]2C[C@H](O)[C@@H](CO)O2)cc1/C=C/Br [BVDU, (E)-5-(2-bromo-vinyl)-2′-deoxyuridine, reference compound] |  |  |  |  |  | 0.003 |  |  |  |  |  |  |
| O=c1nc2oc(-c3ccc(Br)cc3)cc2cn1[C@H]1C[C@H](O)[C@@H](CO)O1 [Example 12, 3-(2′-deoxy-β-D-ribofuranosyl)-6-(4-bromophenyl)-2,3-dihydrofuro-[2,3-d]pyrimidin-2-one] | 0.2 | >2 µM | > 5 | > 5 | 96 |  | 0.29 |  |  |  |  |  |
| CCCOc1ccc(-c2cc3cn([C@H]4C[C@H](O)[C@@H](CO)O4)c(=O)nc3o2)cc1 [Example 16, 3-(2′-deoxy-β-D-ribofuranosyl)-6-(4-n-propoxyphenyl)-2,3-dihydrofuro-[2,3-d]pyrimidin-2-one] | 0.002 | ≧200 μM | > 50 | 11 | > 200 |  |  |  |  |  |  |  |
| CCCCCCCOc1ccc(-c2cc3cn([C@H]4C[C@H](O)[C@@H](CO)O4)c(=O)nc3o2)cc1 [Example 19, 3-(2′-deoxy-β-D-ribofuranosyl)-6-(4-n-heptoxyphenyl)-2,3-dihydrofuro-[2,3-d]pyrimidin-2-one] | 0.002 | ≧50 μM | > 20 | > 50 | > 200 |  |  |  |  |  |  |  |
| O=c1nc2oc(-c3ccc(F)cc3)cc2cn1[C@H]1C[C@H](O)[C@@H](CO)O1 [Example 10, 3-(2′-deoxy-β-D-ribofuranosyl)-6-(4-fluorophenyl)-2,3-dihydrofuro-[2,3-d]pyrimidin-2-one] |  | 200 µM |  |  |  |  |  | > 50 | > 50 | > 50 | > 50 | 171 |
| CCCCCOc1ccc(-c2cc3cn([C@H]4C[C@H](O)[C@@H](CO)O4)c(=O)nc3o2)cc1 [Example 17, 3-(2′-deoxy-β-D-ribofuranosyl)-6-(4-n-pentoxyphenyl)-2,3-dihydrofuro-[2,3-d]pyrimidin-2-one] | 0.002 | >50 µM | > 20 | 3.7 | > 200 |  |  |  |  |  |  |  |
| Nc1nc2c(ncn2COCCO)c(=O)[nH]1 [Acyclovir, reference compound] | 1 | >200 µM |  |  | > 200 |  |  |  |  |  |  |  |
| O=c1nc2oc(-c3ccccc3)cc2cn1[C@H]1C[C@H](O)[C@@H](CO)O1 [Example 7, 3-(2′-deoxy-β-D-ribofuranosyl)-6-(phenyl)-2,3-dihydrofuro-[2,3-d]pyrimidin-2-one] |  | >200 µM |  |  |  |  |  | < 0.5 | < 0.5 | 162 | > 200 | > 200 |
| O=c1nc2oc(-c3ccc(Cl)cc3)cc2cn1[C@H]1C[C@H](O)[C@@H](CO)O1 [Example 11] | 0.08 | ≧20 μM | > 20 | > 20 | > 200 |  | 0.1 |  |  |  |  |  |
| CCCCCCOc1ccc(-c2cc3cn([C@H]4C[C@H](O)[C@@H](CO)O4)c(=O)nc3o2)cc1 [Example 18, 3-(2′-deoxy-β-D-ribofuranosyl)-6(4-n-hexoxyphenyl)-2,3-dihydrofuro-[2,3-d]pyrimidin-2-one] | 0.002 | >20 µM | > 20 | > 5 | > 200 |  |  |  |  |  |  |  |
| Cc1ccc(-c2cc3cn([C@H]4C[C@H](O)[C@@H](CO)O4)c(=O)nc3o2)cc1 [Example 8, 3-(2′-deoxy-β-D-ribofuranosyl)-6-(4-methylphenyl)-2,3-dihydrofuro-[2,3-d]pyrimidin-2-one] |  | >200 µM |  |  |  |  |  | < 0.5 | < 0.5 | > 200 | 103 | > 200 |
| CCCCCCCCc1ccc(-c2cc3cn([C@H]4C[C@H](O)[C@@H](CO)O4)c(=O)nc3o2)cc1 [Example 6, 3-(2′-deoxy-β-D-ribofuranosyl)-6-(4-n-octylphenyl)-2,3-dihydrofuro[2,3-d]pyrimidin-2-one] |  | ≧20 μM |  |  |  |  |  | 0.005 | 0.015 | > 20 | > 20 | > 200 |
| CCCCCCCCCCc1cc2cn([C@H]3C[C@H](O)[C@@H](CO)O3)c(=O)nc2o1 [Ex2 WO 98/49177, 3-(2-deoxy-β-D-ribofuranosyl)-6-decyl-2,3-dihydrofuro [2,3-d]pyrimidin-2-one, reference compound] | 0.008 | >50 µM | > 50 | > 50 | > 50 |  | 0.015 |  |  |  |  |  |
